ChEMBL document CHEMBL3132769, “Fragment growing to retain or alter the selectivity of anchored kinase hinge-binding fragments” (Medchemcomm, 2014)

What was measured:
[1] = target: Calcium/calmodulin-dependent protein kinase type II subunit gamma (Homo sapiens) (UniProt Q13555); assay: Inhibition of human CAMK2 gamma catalytic domain expressed in baculovirus assessed as substrate phosphorylation using fluorescence-labelled peptides as substrate at 9 uM after 90 mins by microfluidic peptide phosphorylation assay
Calcium/calmodulin-dependent protein kinase type II subunit gamma (Homo sapiens), sequence (Q13555 whole entry, the tested form may be a part): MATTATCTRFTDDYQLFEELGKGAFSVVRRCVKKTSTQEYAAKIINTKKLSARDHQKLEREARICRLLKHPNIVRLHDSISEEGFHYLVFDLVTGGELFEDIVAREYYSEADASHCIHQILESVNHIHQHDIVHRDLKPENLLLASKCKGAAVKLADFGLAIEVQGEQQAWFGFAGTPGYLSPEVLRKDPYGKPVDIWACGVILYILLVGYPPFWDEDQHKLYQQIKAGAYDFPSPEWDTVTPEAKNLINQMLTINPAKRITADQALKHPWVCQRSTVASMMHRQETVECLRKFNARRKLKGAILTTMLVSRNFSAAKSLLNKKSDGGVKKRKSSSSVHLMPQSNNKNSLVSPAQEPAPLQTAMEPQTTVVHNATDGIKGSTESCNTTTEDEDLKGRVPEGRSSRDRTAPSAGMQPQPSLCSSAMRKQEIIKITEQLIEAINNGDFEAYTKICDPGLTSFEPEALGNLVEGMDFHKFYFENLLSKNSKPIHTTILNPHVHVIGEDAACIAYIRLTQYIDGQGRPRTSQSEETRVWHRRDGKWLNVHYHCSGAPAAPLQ

[2] = target: Insulin receptor (Homo sapiens) (UniProt P06213); assay: Inhibition of human INSR catalytic domain expressed in baculovirus assessed as substrate phosphorylation using fluorescence-labelled peptides as substrate at 95 uM after 90 mins by microfluidic peptide phosphorylation assay
[3] = tested on: Tyrosine-protein kinase ABL1 (Homo sapiens), P00519 [H396P]; assay: Inhibition of human truncated ABL H396P mutant expressed in baculovirus assessed as substrate phosphorylation using fluorescence-labelled peptides as substrate at 420 uM after 90 mins by microfluidic peptide phosphorylation assay
[4] = target: T1, Serine/threonine-protein kinase BRSK2 (Homo sapiens) (UniProt Q8IWQ3); assay: Inhibition of human truncated BRSK2 expressed in baculovirus assessed as substrate phosphorylation using fluorescence-labelled peptides as substrate at 420 uM after 90 mins by microfluidic peptide phosphorylation assay
T1 sequence (whole entry): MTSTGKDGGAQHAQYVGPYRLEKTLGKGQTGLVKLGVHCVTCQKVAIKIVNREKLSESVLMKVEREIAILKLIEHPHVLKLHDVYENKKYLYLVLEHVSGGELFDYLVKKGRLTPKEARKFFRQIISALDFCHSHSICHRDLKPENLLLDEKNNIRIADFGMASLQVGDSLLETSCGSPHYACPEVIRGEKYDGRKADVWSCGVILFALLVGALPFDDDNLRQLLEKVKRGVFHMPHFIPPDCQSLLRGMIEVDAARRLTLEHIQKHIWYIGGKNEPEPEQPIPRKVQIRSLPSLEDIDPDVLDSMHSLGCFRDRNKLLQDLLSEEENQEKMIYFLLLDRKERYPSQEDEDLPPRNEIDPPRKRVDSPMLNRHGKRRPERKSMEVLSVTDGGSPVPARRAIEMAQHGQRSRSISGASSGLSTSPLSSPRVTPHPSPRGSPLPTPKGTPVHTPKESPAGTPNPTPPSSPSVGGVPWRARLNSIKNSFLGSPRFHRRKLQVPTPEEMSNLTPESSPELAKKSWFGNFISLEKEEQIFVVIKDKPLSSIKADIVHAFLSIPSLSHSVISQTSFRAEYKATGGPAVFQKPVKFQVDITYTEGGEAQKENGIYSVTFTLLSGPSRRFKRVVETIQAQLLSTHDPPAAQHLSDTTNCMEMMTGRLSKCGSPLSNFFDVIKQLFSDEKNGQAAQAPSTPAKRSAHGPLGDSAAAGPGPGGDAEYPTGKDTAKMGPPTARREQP

[5] = target: T2, Serine/threonine-protein kinase D1 (Homo sapiens) (UniProt Q15139); assay: Inhibition of human full length PKD1 expressed in baculovirus assessed as substrate phosphorylation using fluorescence-labelled peptides as substrate at 70 uM after 90 mins by microfluidic peptide phosphorylation assay
T2 sequence (whole entry): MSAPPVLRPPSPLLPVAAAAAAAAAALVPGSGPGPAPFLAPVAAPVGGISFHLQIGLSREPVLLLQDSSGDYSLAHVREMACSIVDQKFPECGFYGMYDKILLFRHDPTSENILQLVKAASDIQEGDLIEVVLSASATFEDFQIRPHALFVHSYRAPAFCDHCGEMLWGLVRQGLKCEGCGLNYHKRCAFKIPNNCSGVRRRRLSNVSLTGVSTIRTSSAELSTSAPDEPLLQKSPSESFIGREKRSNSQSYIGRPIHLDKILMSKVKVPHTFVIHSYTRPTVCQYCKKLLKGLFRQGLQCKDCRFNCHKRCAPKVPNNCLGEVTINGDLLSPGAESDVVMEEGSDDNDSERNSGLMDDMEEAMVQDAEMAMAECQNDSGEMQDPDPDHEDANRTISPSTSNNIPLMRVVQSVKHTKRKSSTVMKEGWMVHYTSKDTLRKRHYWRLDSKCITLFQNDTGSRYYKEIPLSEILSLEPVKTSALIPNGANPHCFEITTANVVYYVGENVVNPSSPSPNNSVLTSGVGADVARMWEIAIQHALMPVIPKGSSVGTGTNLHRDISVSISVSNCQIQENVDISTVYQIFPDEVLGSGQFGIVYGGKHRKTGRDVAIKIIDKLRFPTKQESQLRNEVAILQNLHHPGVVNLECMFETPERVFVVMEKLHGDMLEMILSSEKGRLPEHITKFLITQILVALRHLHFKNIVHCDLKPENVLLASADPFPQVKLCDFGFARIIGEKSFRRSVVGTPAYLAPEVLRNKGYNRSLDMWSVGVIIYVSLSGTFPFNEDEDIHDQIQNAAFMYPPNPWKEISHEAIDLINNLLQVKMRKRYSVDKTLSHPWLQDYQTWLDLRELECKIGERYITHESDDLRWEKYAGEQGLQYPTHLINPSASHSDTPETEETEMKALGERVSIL

[6] = target: Epidermal growth factor receptor (Homo sapiens) (UniProt P00533); assay: Inhibition of human EGFR catalytic domain expressed in baculovirus assessed as substrate phosphorylation using fluorescence-labelled peptides as substrate at 70 uM after 90 mins by microfluidic peptide phosphorylation assay
Epidermal growth factor receptor (Homo sapiens), sequence (P00533 whole entry, the tested form may be a part): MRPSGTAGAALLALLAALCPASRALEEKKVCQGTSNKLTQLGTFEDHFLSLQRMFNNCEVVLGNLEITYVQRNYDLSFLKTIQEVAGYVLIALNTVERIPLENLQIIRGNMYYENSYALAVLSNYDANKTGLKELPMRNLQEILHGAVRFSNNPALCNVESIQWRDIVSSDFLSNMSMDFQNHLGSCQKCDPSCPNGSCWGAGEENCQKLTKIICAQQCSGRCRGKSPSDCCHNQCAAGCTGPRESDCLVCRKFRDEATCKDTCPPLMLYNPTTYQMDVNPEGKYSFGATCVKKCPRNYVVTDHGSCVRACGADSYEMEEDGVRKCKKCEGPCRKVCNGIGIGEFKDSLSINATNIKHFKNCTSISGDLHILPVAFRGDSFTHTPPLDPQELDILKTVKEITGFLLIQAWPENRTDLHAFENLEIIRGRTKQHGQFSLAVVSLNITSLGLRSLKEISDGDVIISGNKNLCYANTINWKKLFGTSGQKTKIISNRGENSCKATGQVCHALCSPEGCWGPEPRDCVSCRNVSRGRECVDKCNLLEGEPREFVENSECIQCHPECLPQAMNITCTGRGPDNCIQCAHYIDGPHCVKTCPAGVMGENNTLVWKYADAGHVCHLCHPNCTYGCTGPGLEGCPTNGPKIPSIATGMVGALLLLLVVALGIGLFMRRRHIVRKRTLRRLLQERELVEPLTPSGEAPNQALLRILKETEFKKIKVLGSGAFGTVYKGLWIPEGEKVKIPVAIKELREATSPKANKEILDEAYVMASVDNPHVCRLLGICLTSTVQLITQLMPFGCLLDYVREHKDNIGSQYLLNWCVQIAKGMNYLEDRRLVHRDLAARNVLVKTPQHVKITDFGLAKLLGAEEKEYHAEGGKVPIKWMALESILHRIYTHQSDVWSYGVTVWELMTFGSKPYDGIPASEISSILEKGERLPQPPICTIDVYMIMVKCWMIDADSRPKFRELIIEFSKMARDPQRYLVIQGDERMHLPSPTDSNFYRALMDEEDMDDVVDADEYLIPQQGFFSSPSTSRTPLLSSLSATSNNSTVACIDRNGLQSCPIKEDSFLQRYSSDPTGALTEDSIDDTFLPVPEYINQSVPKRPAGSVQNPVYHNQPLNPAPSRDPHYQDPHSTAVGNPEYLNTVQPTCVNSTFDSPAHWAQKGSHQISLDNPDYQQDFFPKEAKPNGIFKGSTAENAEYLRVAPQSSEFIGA

[7] = target: Glycogen synthase kinase-3 beta (Homo sapiens) (UniProt P49841); assay: Inhibition of human full length GSK-3 beta expressed in baculovirus assessed as substrate phosphorylation using fluorescence-labelled peptides as substrate at 70 uM after 90 mins by microfluidic peptide phosphorylation assay
Glycogen synthase kinase-3 beta (Homo sapiens), sequence (P49841 whole entry, looked up): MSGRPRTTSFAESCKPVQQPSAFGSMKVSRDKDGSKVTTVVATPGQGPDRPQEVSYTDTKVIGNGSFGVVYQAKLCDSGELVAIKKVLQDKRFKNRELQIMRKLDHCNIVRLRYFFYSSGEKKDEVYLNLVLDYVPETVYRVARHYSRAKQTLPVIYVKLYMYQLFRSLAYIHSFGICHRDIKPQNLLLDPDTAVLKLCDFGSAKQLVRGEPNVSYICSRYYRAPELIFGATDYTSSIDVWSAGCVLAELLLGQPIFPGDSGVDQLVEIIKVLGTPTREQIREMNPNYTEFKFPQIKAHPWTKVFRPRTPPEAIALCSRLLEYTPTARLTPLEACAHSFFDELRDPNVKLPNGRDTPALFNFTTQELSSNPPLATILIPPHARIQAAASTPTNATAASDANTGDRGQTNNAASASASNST

[8] = target: T3, Testis-specific serine/threonine-protein kinase 2 (Homo sapiens) (UniProt Q96PF2); assay: Inhibition of human full length TSSK2 expressed in baculovirus assessed as substrate phosphorylation using fluorescence-labelled peptides as substrate at 0.2 uM after 90 mins by microfluidic peptide phosphorylation assay
T3 sequence (whole entry): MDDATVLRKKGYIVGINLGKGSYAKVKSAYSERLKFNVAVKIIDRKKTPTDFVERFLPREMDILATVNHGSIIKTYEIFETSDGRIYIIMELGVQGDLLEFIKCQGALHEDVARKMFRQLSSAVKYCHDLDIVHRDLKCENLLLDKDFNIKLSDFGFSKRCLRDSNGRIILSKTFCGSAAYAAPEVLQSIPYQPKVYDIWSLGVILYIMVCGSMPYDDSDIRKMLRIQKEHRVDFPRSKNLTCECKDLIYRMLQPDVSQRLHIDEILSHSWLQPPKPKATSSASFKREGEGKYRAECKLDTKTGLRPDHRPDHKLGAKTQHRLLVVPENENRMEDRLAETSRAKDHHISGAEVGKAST

[9] = target: Insulin receptor (Homo sapiens) (UniProt P06213); assay: Inhibition of human INSR catalytic domain expressed in baculovirus assessed as substrate phosphorylation using fluorescence-labelled peptides as substrate at 2 uM after 90 mins by microfluidic peptide phosphorylation assay

NCC1CN(c2ncnc3[nH]c4cnccc4c23)CCO1 (centres undefined)
inhibition [1]: 24%

NCCc1ccc(-c2ncnc3[nH]cnc23)cc1
inhibition [2]: 23.5%

c1nc(N2CCOCC2)c2nc[nH]c2n1
inhibition [3]: 71%
inhibition [4]: 60.5%

CNCc1ccc(-c2ncnc3[nH]cnc23)cc1
inhibition [5]: 54.5%
inhibition [6]: 16.5%
inhibition [7]: 37.5%

Clc1ccc(C2(c3ccc(-c4ncnc5[nH]cnc45)cc3)CCNCC2)cc1
inhibition [8]: 7%

NC1CCN(c2ncnc3[nH]ccc23)CC1
inhibition [9]: 7.5%
